Data published in ChEMBL document CHEMBL4190311, “Discovery of cycloalkyl-fused N-thiazol-2-yl-benzamides as tissue non-specific glucokinase activators: Design, synthesis, and biological evaluation” (Eur J Med Chem, 2017).
The source made the active and inactive calls. The calls are words filed in the database; no cut-off is given here.

Legend:
Hexokinase-4 [1] = molecular target: T1, Hexokinase-4 (Homo sapiens, UniProt P35557); test: Activation of recombinant human liver glucokinase 2 assessed as […] in presence of 5 mM glucose by G6PDH coupled assay
T1 sequence (P35557 whole entry): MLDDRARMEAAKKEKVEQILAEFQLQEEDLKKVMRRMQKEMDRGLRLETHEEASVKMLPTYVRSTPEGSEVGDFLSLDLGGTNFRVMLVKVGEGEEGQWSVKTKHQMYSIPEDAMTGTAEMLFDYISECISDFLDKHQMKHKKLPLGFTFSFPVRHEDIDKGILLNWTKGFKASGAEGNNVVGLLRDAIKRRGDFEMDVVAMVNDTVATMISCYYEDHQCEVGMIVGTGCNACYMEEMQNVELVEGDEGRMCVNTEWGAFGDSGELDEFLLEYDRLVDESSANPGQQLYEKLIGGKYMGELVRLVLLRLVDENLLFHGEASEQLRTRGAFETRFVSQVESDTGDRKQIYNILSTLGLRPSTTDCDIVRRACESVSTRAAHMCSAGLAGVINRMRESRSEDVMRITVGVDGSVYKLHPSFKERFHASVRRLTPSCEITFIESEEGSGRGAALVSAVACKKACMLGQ

Hepatocyte = test: Increase in glucose uptake in mouse primary hepatocytes assessed as glucose uptake level at 20 uM after 24 hrs by glucose oxidase method relative to control; format: functional
[2] = molecular target: T2, Hexokinase-4 (Rattus norvegicus) (UniProt P17712); test: Activation of glucokinase in rat INS1(832/13) cells assessed as increase in glucose sensitive insulin secretion at 20 uM after 2 hrs in presence of 5.5 mM glucose by AlphaLISA method relative to control; format: cell-based
T2 sequence (whole entry): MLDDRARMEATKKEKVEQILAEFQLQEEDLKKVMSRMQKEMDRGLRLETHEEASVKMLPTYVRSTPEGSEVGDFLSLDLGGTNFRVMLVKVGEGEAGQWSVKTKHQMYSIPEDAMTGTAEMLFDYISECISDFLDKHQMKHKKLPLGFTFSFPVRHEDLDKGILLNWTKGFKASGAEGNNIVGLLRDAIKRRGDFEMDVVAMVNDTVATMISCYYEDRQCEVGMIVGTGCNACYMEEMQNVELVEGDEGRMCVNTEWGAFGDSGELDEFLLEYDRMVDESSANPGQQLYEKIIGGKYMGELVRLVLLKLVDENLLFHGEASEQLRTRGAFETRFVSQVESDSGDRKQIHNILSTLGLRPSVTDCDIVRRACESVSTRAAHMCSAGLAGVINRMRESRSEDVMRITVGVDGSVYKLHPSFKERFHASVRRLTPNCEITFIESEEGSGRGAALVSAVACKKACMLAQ

INS1(832/13) [3] = test: Cytoprotection in rat INS1(832/13) cells assessed as reduction in streptozocin induced beta cells apoptosis after 20 hrs by MTT based spectrophotometric method; format: functional, cell-based; details: INS-1 832/13, 20 h
INS1(832/13) [4] = test: Cytoprotection in rat INS1(832/13) cells assessed as reduction in streptozocin induced beta cells apoptosis after 20 hrs by MTT based spectrophotometric method relative to control; format: functional; set-up: scale not given: the % may be the effect or the level left
Hexokinase-4 [5] = molecular target: T1, Hexokinase-4; test: Activation of recombinant human liver glucokinase 2 assessed as assessed as reduction in Km for glucose in presence of 5 mM glucose by G6PDH coupled assay
[6] = AUC (0 to infinity) in Sprague-Dawley rat at 10 mg/kg, po by LC-MS/MS analysis; format: ADME, organism-based; set-up: dose 10 mg/kg, time infinity, route oral; details: in vivo
[7] = Half life in Sprague-Dawley rat at 10 mg/kg, po by LC-MS/MS analysis; format: ADME, organism-based; details: in vivo
[8] = Tmax in Sprague-Dawley rat at 10 mg/kg, po by LC-MS/MS analysis; format: ADME, organism-based; details: in vivo
Mus musculus [9] = test: Antidiabetic activity in po dosed db/db mouse BKS.Cg-Dock7m+/+ Leprdb/J assessed as reduction in glucose excursion administered daily for 5 weeks measured up to 120 mins after over night fasting at fourth week by OGTT method; format: functional, organism-based
Mus musculus [10] = test: Antidiabetic activity in dosed db/db mouse BKS.Cg-Dock7m+/+ Leprdb/J assessed as reduction in glucose AUC level at 30 to 60 mg/kg/day, po for 5 weeks measured up to 120 mins after over night fasting at fourth week during OGTT method; format: functional, organism-based
Mus musculus [11] = test: Toxicity in db/db mouse BKS.Cg-Dock7m+/+ Leprdb/J assessed as dyslipidemia by measuring effect on cholesterol level at 15 to 60 mg/kg, po administered daily for 5 weeks; format: organism-based; details: in vivo, 840 h
Mus musculus [12] = test: Toxicity in db/db mouse BKS.Cg-Dock7m+/+ Leprdb/J assessed as dyslipidemia by measuring effect on high density lipoprotein-cholesterol level at 15 to 60 mg/kg, po administered daily for 5 weeks; format: organism-based; details: in vivo, 840 h
Mus musculus [13] = test: Toxicity in db/db mouse BKS.Cg-Dock7m+/+ Leprdb/J assessed as dyslipidemia by measuring effect on low density lipoprotein-cholesterol level at 15 to 60 mg/kg, po administered daily for 5 weeks; format: organism-based; details: in vivo, 840 h
Mus musculus [14] = test: Toxicity in C57BL/6J mouse assessed as decrease in fasting blood glucose level at 200 mg/kg, po administered as single dose measured over 6 hrs; format: organism-based; details: in vivo
Mus musculus [15] = test: Antidiabetic activity in db/db mouse BKS.Cg-Dock7m+/+ Leprdb/J assessed as reduction in HbA1c level at 15 to 60 mg/kg/day, po for 5 weeks; format: functional, organism-based
Mus musculus [16] = test: Antidiabetic activity in db/db mouse BKS.Cg-Dock7m+/+ Leprdb/J assessed as reduction in fasting plasma glucose level at 15 to 60 mg/kg/day, po for 5 weeks; format: functional, organism-based

COC[C@H](C)Oc1cc(Oc2ccc(C(=O)N3CCC3)cc2)cc(C(=O)Nc2nc3c(s2)CN(C(=O)OC(C)(C)C)CC3)c1
EC50 (Hexokinase-4 [1]): 160 nM
Activity (Hepatocyte): 15%
fold change (FC) [2]: 2.69
EC50 (INS1(832/13) [3]): 490 nM
Activity (INS1(832/13) [4]): 161%
EC50 (Hexokinase-4 [5]): 50 nM
AUC(0-inf) [6]: 7580 ng·h/mL
half-life [7]: 30 min
Tmax [8]: 34.8 min
Activity (Mus musculus [9]): Dose-dependent effect
Activity (Mus musculus [10]): Active
Activity (Mus musculus [11]): Non-Toxic
Activity (Mus musculus [12]): Non-Toxic
Activity (Mus musculus [13]): Non-Toxic
Activity (Mus musculus [14]): Non-Toxic
Activity (Mus musculus [15]): Active
Activity (Mus musculus [16]): Active
